Here are results for 2 substances from patent US7524981B2, “Phospholipid derivatives and process for the production there” (NOF Corporation, priority 2003, dated 2009).

This data set in a line: Salt-tolerant effect: clouding point in aqueous sodium sulfate. In kind it is physicochemical. As to conditions: 1 mass % solution in 5 mass % aqueous solution of sodium sulfate. On the procedure:
Clouding point of a 1 mass % solution of tetradecaglycerol succinyl distearoylphosphatidylethanolamine obtained in Example 5, which was dissolved in 5 mass % aqueous solution of sodium sulfate, was measured. As a result of the measurement, clouding point could not be detected even when the temperature was raised to 80° C.
Clouding point was measured for monomethylpolyoxyethylenecarbamyl (molecular weight: 2000) distearoylphosphatidylethanolamine obtained in Comparative Synthesis Example 1 in the same manner as used in Example 9.

Bounds are passed on as bounds.

In the case of “Monomethylpolyoxyethylenecarbamyl (Molecular Weight: 2000) Distearoylphosphatidylethanolamine”, the Clouding point came to 50.0 °C.
The same measure for “Tetradecaglycerol Succinyl Distearoylphosphatidylethanolamine [DSPE-PG(40)]”: over 80 °C.
